“And” between values parts separate entries of the source, which are not always exact repeats. Identical values can stand only once.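 Compound exposure: 48 hours, 5 concentrations, 96-well plates. GI50 marks 50% less growth. The concentration for full growth arrest is given as TGI.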
What was measured:
Assay in all cases: DTP human tumour cell line panel, 48 h
UACC-62 melanoma = tested on: UACC-62 melanoma
K-562 leukemia = tested on: K-562 leukemia
SR leukemia = tested on: SR leukemia
SK-MEL-28 melanoma = tested on: SK-MEL-28 melanoma
ACHN renal = tested on: ACHN renal
HOP-62 NSCLC = tested on: HOP-62 NSCLC
A549 NSCLC = tested on: A549 NSCLC
HOP-92 NSCLC = tested on: HOP-92 NSCLC
SN12C renal = tested on: SN12C renal
NCI-H226 lung = tested on: NCI-H226 lung

Structure (SMILES)	TGI (UACC-62 melanoma)	TGI (K-562 leukemia)	TGI (SR leukemia)	TGI (SK-MEL-28 melanoma)	TGI (ACHN renal)	TGI (HOP-62 NSCLC)	TGI (A549 NSCLC)	TGI (HOP-92 NSCLC)	TGI (SN12C renal)	TGI (NCI-H226 lung)	GI50 (UACC-62 melanoma)	GI50 (K-562 leukemia)	GI50 (SR leukemia)	GI50 (SK-MEL-28 melanoma)	GI50 (ACHN renal)	GI50 (HOP-62 NSCLC)	GI50 (A549 NSCLC)	GI50 (HOP-92 NSCLC)	GI50 (SN12C renal)	GI50 (NCI-H226 lung)
CC(C)=CC(=O)Cc1nc2cc(C)c(C)cc2[nH]c1=O	> 100 µM	> 100 µM	> 100 µM	> 100 µM	> 100 µM	> 100 µM	> 100 µM	99.7 µM	> 100 µM	> 100 µM										
C[C@H]1[C@H](C)CC[C@]2(C(=O)O)CC[C@]3(C)C(=CC[C@@H]4[C@@]5(C)C/C(=C/c6ccco6)C(=O)C(C)(C)[C@@H]5CC[C@]43C)[C@H]12	13 µM	> 100 µM	50.8 µM	17.5 µM	13.5 µM	16.9 µM	16.8 µM	12.5 µM	18.9 µM	23.2 µM	2.86 µM	3.26 µM	4.12 µM	4.81 µM	3.6 µM	3.78 µM	3.71 µM	2.54 µM	3.7 µM	4.36 µM
CCOC(=O)c1sc(=S)c2c(C(=O)OCC)c(C(=O)OCC)sc2c1C(=O)OCC	26.9 µM	25.1 µM	35.4 µM	54.7 µM	39.4 µM	33.4 µM	42.8 µM	23 µM	26.7 µM	26.7 µM	12.1 µM	10.6 µM	15 µM	21.3 µM	16.6 µM	17.6 µM	16.4 µM	10.3 µM	11.2 µM	10.9 µM
CCCCCCCC[N+](C)(CCCCCCCC)CCCCCCCC	1.32 µM	0.447 µM	0.408 µM	1.79 µM	1.46 µM	1.61 µM	3.08 µM	0.803 µM	1.24 µM	1.49 µM	0.302 µM	0.108 µM	0.165 µM	0.528 µM	0.427 µM	0.473 µM	1.36 µM	0.214 µM	0.337 µM	0.406 µM
CC1OC(OCC2COC(O)(Oc3c(-c4ccc(O)c(O)c4)oc4cc(O)cc(O)c4c3=O)C(O)C2O)C(O)C(O)C1O (centres undefined)	> 100 µM	> 100 µM	> 100 µM	> 100 µM	> 100 µM	> 100 µM	> 100 µM	> 100 µM	> 100 µM	> 100 µM										
NCCC(O)(P(=O)(O)O)P(=O)(O)O	> 100 µM	> 100 µM	> 100 µM	> 100 µM	> 100 µM	> 100 µM	> 100 µM	> 100 µM	> 100 µM	36.5 µM	29.1 µM	> 100 µM	> 100 µM	> 100 µM	36 µM	> 100 µM	> 100 µM	> 100 µM	> 100 µM	14.1 µM
CSc1nc2sc3cc(Cl)ccc3n2c(=N)c1C#N	> 100 µM	> 100 µM	> 100 µM	> 100 µM	> 100 µM	> 100 µM	> 100 µM	4.77 µM	> 100 µM	> 100 µM	17.7 µM	> 52.4 µM	17.6 µM	11.6 µM	> 62.2 µM	45.4 µM	12.2 µM	< 0.0468 µM	> 100 µM	12.8 µM
CC(=O)N=c1ccc2nc3c(cc(N)c4ccccc43)oc-2c1	2.72 µM		> 21.2 µM	3.26 µM	2.62 µM	1.83 µM	3.42 µM	4.94 µM	2.9 µM	> 39.1 µM	1.41 µM	0.389 µM	1.67 µM	1.75 µM	1.34 µM	0.573 µM	1.08 µM	1.4 µM	1.39 µM	
Nc1nc2nc[nH]c2c(=O)[nH]1	> 100 µM	> 100 µM	> 100 µM	> 100 µM	> 100 µM	> 100 µM	> 100 µM	> 100 µM	> 100 µM	> 100 µM										
NC1=N/C(=C2/CCNC(=O)c3[nH]c(Br)cc32)C(=O)N1	> 100 µM	> 100 µM	2.25 µM	> 100 µM	> 100 µM	> 100 µM	> 100 µM	63.8 µM and 81.5 µM	> 100 µM	> 100 µM										> 64 µM and 21.8 µM
CCCc1nc2c(C)cc(-c3nc4ccccc4n3C)cc2n1Cc1ccc(-c2ccccc2C(=O)O)cc1	> 100 µM	> 100 µM	> 100 µM	> 100 µM	> 100 µM	> 100 µM	> 100 µM	> 100 µM	> 100 µM	> 100 µM	22.4 µM	23.2 µM	28.6 µM	25.7 µM	25.6 µM	43.5 µM	22.8 µM	25.7 µM	33.3 µM	32.4 µM
Nc1ncnc2c1ncn2C1OC(CO)=CC1O (centres undefined)	> 37.5 µM	> 37.5 µM	> 37.5 µM	> 37.5 µM	> 37.5 µM	> 37.5 µM	> 37.5 µM	> 37.5 µM	> 37.5 µM	> 37.5 µM										
CCn1cnc2c(Nc3cccc(Cl)c3)nc(N[C@@H]3CCCC[C@@H]3N)nc21	3.59 µM	4.18 µM	3.94 µM	3.42 µM	3.6 µM	3.71 µM	8.6 µM	3.57 µM	7.62 µM	5.95 µM	1.49 µM	1.51 µM	0.699 µM	1.68 µM	1.34 µM	1.52 µM	2.09 µM	1.04 µM	2.08 µM	2 µM
Cc1cc(Cl)cc2c1NC(=O)C2(O)C(C)C(=O)c1ccc(Cl)cc1 (centres undefined)	44 µM	> 100 µM	> 91.2 µM	> 100 µM	> 100 µM	> 100 µM	> 100 µM	> 100 µM	> 100 µM	> 100 µM										

From PubChem BioAssay (NCI)
